Experimental data published in patent US12139498B1, “Positive allosteric modulators of the muscarinic acetylcholine receptor M4” (Vanderbilt University, priority 2023, dated 2024).

Molecular target: T1, Human M4 (Homo sapiens, UniProt P08173)
T1 sequence (P08173 1-479): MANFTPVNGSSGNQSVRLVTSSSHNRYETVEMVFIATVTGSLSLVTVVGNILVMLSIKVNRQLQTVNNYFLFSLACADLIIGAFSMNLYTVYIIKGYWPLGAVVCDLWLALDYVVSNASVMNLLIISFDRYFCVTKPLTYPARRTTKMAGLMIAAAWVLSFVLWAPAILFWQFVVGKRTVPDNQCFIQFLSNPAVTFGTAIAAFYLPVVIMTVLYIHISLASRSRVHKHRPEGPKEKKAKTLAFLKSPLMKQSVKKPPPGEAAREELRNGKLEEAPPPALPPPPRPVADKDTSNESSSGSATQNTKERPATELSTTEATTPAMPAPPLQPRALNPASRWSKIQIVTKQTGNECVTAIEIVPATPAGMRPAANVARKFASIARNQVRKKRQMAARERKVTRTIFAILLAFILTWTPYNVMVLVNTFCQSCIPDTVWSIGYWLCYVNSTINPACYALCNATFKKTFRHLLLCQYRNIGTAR
Experiment: M4 cell-based functional assay (calcium mobilization)
Set-up: expressed in transfected cells
Details: for Emax at 30 µM: % ACh maximum at 30 μM; for EC50: CHO-K1 hM4-Gqi5 cells, calcium flux, increase in EC20 acetylcholine response
Procedure: Human (h) and rat (r) M4 CDNAs, along with the chimeric G protein Gqi5, were transfected into Chinese hamster ovary (CHO-K1) cells purchased from the American Type Culture Collection using Lipofectamine2000. The transfected cells were subjected to selection antibiotic treatment to generate stable cell lines; G418 sulfate (1 mg/ml) for selecting M4 expressing cells and Hygromycin B (500 μg/mL) for selecting Gqi5 expressing cells. The resulting polyclones were further screened to obtain monoclones of hM4-Gqi5 and rM4-Gqi5 for compound screening assay. Stable monoclone cells were maintained in Ham's F-12 medium containing 10% heat-inactivated fetal bovine serum (FBS), 1× Antibiotic/Antimycotic, 20 mM HEPES, 500 μg/mL G418 sulfate, and 200 μg/mL Hygromycin B in 37° C. humidified incubators in the presence of 5% CO2.
The high throughput assay was employed to measure receptor-induced mobilization of intracellular calcium to determine compound activity. Test compound was added to cells expressing the muscarinic receptors that were loaded with calcium sensitive fluorescent dye. After a ˜2.5 minute incubation period, a submaximal (EC20) concentration of acetylcholine was added, and the response measured. This kinetic assay allows for simultaneous screening and potency determination of multiple pharmacological modes of action including agonist and potentiator activity. CHO-K1 cells stably expressing muscarinic receptors were plated in growth medium lacking G418 and hygromycin at 15,000 cells/20 μL/well in Greiner 384-well black-walled, tissue culture (TC)-treated, clear-bottom plates (Greiner Bio-One). Cells were incubated overnight at 37° C. and 5% CO2. The next day, calcium assay buffer (Hank's balanced salt solution (HBSS), 20 mM HEPES, 2.5 mM Probenecid, 4.16 mM sodium bicarbonate (Sigma-Aldrich, St. Louis, MO)) was prepared to dilute compounds, agonists, and Fluo-4-acetomethoxyester (Fluo-4-AM), fluorescent calcium indicator dye. Compounds were serially diluted 1:3 into 10 point concentration response curves in DMSO using the Bravo Liquid Handler (Agilent, Santa Clara, CA), transferred to a 384 well daughter plates using an Echo acoustic liquid handler (Beckman Coulter, Indianapolis, Indiana), and diluted in assay Buffer to a 2× final concentration. The agonist plates were prepared using acetylcholine (ACh, Sigma-Aldrich, St. Louis, MO) concentrations for the EC20 and ECMAX responses by diluting in assay buffer to a 5× final concentration. The 2× dye solution (2.3 μM) was prepared by mixing a 2.3 mM Fluo-4-AM stock in DMSO with 10% (w/v) pluronic acid F-127 in a 1:1 ratio in assay buffer. Using a microplate washer (BioTek, Winooski, VT), cells were washed with assay buffer for 3 times to remove medium. After the final wash, 20 μL of assay buffer remained in the cell plates. Immediately, 20 μL of the 2× dye solution (final 1.15 μM) was added to each well of the cell plate using a Multidrop Combi dispenser (Thermo Fisher, Waltham, MA). After cells were incubated with the dye solutions for 45 min at 37° C. in the presence of 5% CO2, the dye solutions were removed and replaced with assay buffer using a microplate washer, leaving 20 μL of assay buffer in the cell plate.
The prepared compound, agonist, and cell plates were placed inside the Functional Drug Screening System uCell (FDSS uCell, Hamamatsu, Japan) to measure the calcium flux.
The triple add protocol was used to measure Ca kinetics; Compound, ACh for EC2O, and ACh for EC80 adds in an order. Briefly, after establishment of a fluorescence baseline for 2 seconds (excitation, 480 nm; emission, 530 nm), first add occurred by adding 20 μL of test compound to the cells, and the response was measured for 140 seconds. This is followed by second add; 10 μL (5×) of an EC20 concentration of ACh agonist was added to the cells, and the response of the cells was measured for 125 seconds. […]

Emax at 30 µM | EC50 | SMILES
85% | 0.094 µM | Cc1cc2nc(C)c(F)c(=O)n2nc1N1CCc2nc(Br)sc2C1 [Compound 40, 7-(2-bromo-6,7-dihydrothiazolo[5,4-c]pyridin-5(4H)-yl)-3-fluoro-2,8-dimethyl-4H-pyrimido[1,2-b]pyridazin-4-one]
87% | 0.418 µM | Cc1cc2nc(C(=O)NCc3cncs3)cc(=O)n2nc1N1CCc2nc(Br)sc2C1 [Compound 42, 7-(2-bromo-6,7-dihydrothiazolo[5,4-c]pyridin-5(4H)-yl)-8-methyl-4-oxo-N-(thiazol-5-ylmethyl)-4H-pyrimido[1,2-b]pyridazine-2-carboxamide]
87% | 1.96 µM | Cc1cc2nc(C(=O)N3CC(C)C3)cc(=O)n2nc1N1CCc2nc(Br)sc2C1 [Compound 43, 7-(2-bromo-6,7-dihydrothiazolo[5,4-c]pyridin-5(4H)-yl)-8-methyl-2-(3-methylazetidine-1-carbonyl)-4H-pyrimido[1,2-b]pyridazin-4-one]
93% | 2.39 µM | COC1CN(C(=O)c2cc(=O)n3nc(N4CCc5nc(Br)sc5C4)c(C)cc3n2)C1 [Compound 44, 7-(2-bromo-6,7-dihydrothiazolo[5,4-c]pyridin-5(4H)-yl)-2-(3-methoxyazetidine-1-carbonyl)-8-methyl-4H-pyrimido[1,2-b]pyridazin-4-one]
85% | 0.752 µM | Cc1cc2nc(C(=O)N3CC(C)(F)C3)cc(=O)n2nc1N1CCc2nc(Br)sc2C1 [Compound 45, 7-(2-bromo-6,7-dihydrothiazolo[5,4-c]pyridin-5(4H)-yl)-2-(3-fluoro-3-methylazetidine-1-carbonyl)-8-methyl-4H-pyrimido[1,2-b]pyridazin-4-one]
91% | 0.36 µM | Cc1cc2nc(C(=O)NC3(C#N)CC3)cc(=O)n2nc1N1CCc2nc(Br)sc2C1 [Compound 46, 7-(2-bromo-6,7-dihydrothiazolo[5,4-c]pyridin-5(4H)-yl)-N-(1-cyanocyclopropyl)-8-methyl-4-oxo-4H-pyrimido[1,2-b]pyridazine-2-carboxamide]
66% | 1.94 µM | Cc1cc2nc(C(=O)N3CC4(COC4)C3)cc(=O)n2nc1N1CCc2nc(Br)sc2C1 [Compound 47, 7-(2-bromo-6,7-dihydrothiazolo[5,4-c]pyridin-5(4H)-yl)-8-methyl-2-(2-oxa-6-azaspiro[3.3]heptane-6-carbonyl)-4H-pyrimido[1,2-b]pyridazin-4-one]
87% | 2.18 µM | Cc1cc2nc(C(=O)NC3CC(CC(F)(F)F)C3)cc(=O)n2nc1N1CCc2nc(Br)sc2C1 (centres unmarked) [Compound 48, 7-(2-bromo-6,7-dihydrothiazolo[5,4-c]pyridin-5(4H)-yl)-8-methyl-4-oxo-N-(3-(2,2,2-trifluoroethyl)cyclobutyl)-4H-pyrimido[1,2-b]pyridazine-2-carboxamide]
76% | 0.386 µM | Cc1cc2nc(=O)cc(C(F)(F)F)n2nc1N1CCc2nc(Br)sc2C1 [Compound 49, 7-(2-bromo-6,7-dihydrothiazolo[5,4-c]pyridin-5(4H)-yl)-8-methyl-4-(trifluoromethyl)-2H-pyrimido[1,2-b]pyridazin-2-one]
66% | 0.521 µM | Cc1cc2nc(=O)ccn2nc1N1CCc2nc(Br)sc2C1 [Compound 50, 7-(2-bromo-6,7-dihydrothiazolo[5,4-c]pyridin-5(4H)-yl)-8-methyl-2H-pyrimido[1,2-b]pyridazin-2-one]
71% | 0.378 µM | Cc1cc2nc(=O)cc(C)n2nc1N1CCc2nc(Br)sc2C1 [Compound 51, 7-(2-bromo-6,7-dihydrothiazolo[5,4-c]pyridin-5(4H)-yl)-4,8-dimethyl-2H-pyrimido[1,2-b]pyridazin-2-one]
92% | 0.868 µM | CCOC(=O)c1cc(=O)n2nc(N3CCc4nc(Br)sc4C3)c(C)cc2n1 [Compound 52, ethyl 7-(2-bromo-6,7-dihydrothiazolo[5,4-c]pyridin-5(4H)-yl)-8-methyl-4-oxo-4H-pyrimido[1,2-b]pyridazine-2-carboxylate]
82% | 2.79 µM | Cc1cc2nccnc2nc1N1CCc2ncsc2C1 [Compound 53, 5-(7-methylpyrido[2,3-b]pyrazin-6-yl)-4,5,6,7-tetrahydrothiazolo[5,4-c]pyridine]
82% | 0.032 µM | Cc1cc2nccnc2nc1N1CCc2nc(C3CC3)sc2C1 [Compound 54, 2-cyclopropyl-5-(7-methylpyrido[2,3-b]pyrazin-6-yl)-4,5,6,7-tetrahydrothiazolo[5,4-c]pyridine]
76% | 0.253 µM | Cc1cc2nccnc2nc1N1CCc2nc(C3(C)CC3)sc2C1 [Compound 55, 2-(1-methylcyclopropyl)-5-(7-methylpyrido[2,3-b]pyrazin-6-yl)-4,5,6,7-tetrahydrothiazolo[5,4-c]pyridine]
50% | 2.39 µM | Cc1cc2nccnc2nc1N1CCc2nc(-c3cccs3)sc2C1 [Compound 56, 5-(7-methylpyrido[2,3-b]pyrazin-6-yl)-2-(thiophen-2-yl)-4,5,6,7-tetrahydrothiazolo[5,4-c]pyridine]
90% | 0.666 µM | Cc1nc2c(s1)CN(c1nc3nccnc3cc1C)CC2 [Compound 57, 2-methyl-5-(7-methylpyrido[2,3-b]pyrazin-6-yl)-4,5,6,7-tetrahydrothiazolo[5,4-c]pyridine]
86% | 1.84 µM | CCOC(=O)c1nc2c(s1)CN(c1nc3nccnc3cc1C)CC2 [Compound 58, ethyl 5-(7-methylpyrido[2,3-b]pyrazin-6-yl)-4,5,6,7-tetrahydrothiazolo[5,4-c]pyridine-2-carboxylate]
54% | 2.78 µM | Cc1cc2nccnc2nc1N1CCc2nc(-c3ccnn3C)sc2C1 [Compound 59, 2-(1-methyl-1H-pyrazol-5-yl)-5-(7-methylpyrido[2,3-b]pyrazin-6-yl)-4,5,6,7-tetrahydrothiazolo[5,4-c]pyridine]
67% | > 10 µM | Cc1cc2nccnc2nc1N1CCc2nc(N)sc2C1 [Compound 60, 5-(7-methylpyrido[2,3-b]pyrazin-6-yl)-4,5,6,7-tetrahydrothiazolo[5,4-c]pyridin-2-amine]
72% | 0.093 µM | Cc1cc2nccnc2nc1N1CCc2nc(C(F)(F)F)sc2C1 [Compound 62, 5-(7-methylpyrido[2,3-b]pyrazin-6-yl)-2-(trifluoromethyl)-4,5,6,7-tetrahydrothiazolo[5,4-c]pyridine]

SMILES | Emax at 30 µM | EC50
Cc1cc2nccnc2nc1N1CCc2nc(Cl)sc2C1 [Compound 61, 2-chloro-5-(7-methylpyrido[2,3-b]pyrazin-6-yl)-4,5,6,7-tetrahydrothiazolo[5,4-c]pyridine] | 68% | 0.414 µM
